Test [1] concerns adrenalin. Briefly: Antiadrenalin activity in vivo (b). From the text: (b) F. P. Luduena et al., Arch. Int. Pharmacodyn. 122, 111,
(d) G. Arcari et Coll., Experientia 28, 819,

Test [2] can be described thus: Antiasthmatic test (Goose, Immunology 16, 749, 1969). It is filed as in vivo.
The subject of a further test is triptamine. The test can be described thus: Antitriptaminic activity in vivo (g). Conditions: sc, read-out: Antitriptaminic activity in vivo ED50. From the text:
(g) S. J. Corne et al., Brit. J. Pharmacol., 20, 106, 1963

Test [3] deals with adrenalin. The test can be described thus: Antiadrenalin activity in vitro (a). To be noted: for adrenolytic activity (in words): as seen from the table (in vitro and in vivo); for Antiadrenalin activity in vitro EC50: in vitro (a), adrenolytic. An excerpt:
(a) J. Brugger, Helv. Physiol. Pharm. Acta 3, 117,
(c) G. Arcari & coll., Brit. J. Pharmacol. 34, 700,

The next test concerns BaCl2. Briefly: Anti BaCl2 activity (spasmolytic) (e). From the text: (e) Magnus Pflugers Arch. ges. Physiol., 102, 123,
A short description of test [4]: Pharmacological properties, classical tests on laboratory animals. Conditions: in vivo. An excerpt:
The compounds claimed in the present invention show interesting pharmacological properties, evidenced by means of classical tests on laboratory animals at extremely low doses.

The next test concerns 5HT. The test can be described thus: Anti 5HT activity in vitro (f). Conditions: for anti-serotininic activity (in words): as seen from the table; for Anti 5HT activity in vitro EC50: in vitro (f).
A further test concerns ptosis due to reserpine. Briefly: Antagonism to ptosis due to reserpine (antidepressive activity). It is filed as in vivo. Conditions: po. An excerpt: Antagonism to ptosis due to reserpine (B. M.
Test [5] has as its system adrenalin. Conditions: iv, comparison value with reference (d) Arcari, Experientia 28, 819; cited from earlier work.
The test system of test [6] is adrenalin. To be noted: comparison value with reference (c) Arcari, Brit. J. Pharmacol. 34, 700; cited from earlier work.
A further test is described as follows: Analgesic activity. Format: in vivo. Conditions: for analgesic activity (in words): in vivo; for ED100: sc.
The mark [7] stands for this setting: in vivo (b), iv, read-out: Antiadrenalin activity in vivo ED50.

Where a name gives a salt, the structure may show the parent alone. Read-outs that look alike come from different tables or passages of the source.

Usually ED50 stands for the dose at which the effect has come halfway, by size or by number of responders. In the case of `CSc1[nH]c2cccc3c2c1C[C@@H]1[C@@H]3C[C@@H](COC(=O)N2CCCCCC2)CN1C` [Compound 10, D-6-methyl-2-methylthio-8beta(perhydroazepinylcarbonyloxymethyl)ergoline], the ED50 in the test with adrenalin [1] (route not printed there, read-out: adrenolytic ED50) came to 0.02 mg/kg. Moreover, the ED100 in test [2] (po, per os) turned out to be 1 mg/kg.

As to `CSc1[nH]c2cccc3c2c1C[C@@H]1[C@@H]3C[C@@H](COC(=O)N2CCOCC2)CN1C` [Compound 11, D-6-methyl-2-methylthio-8beta(morpholinocarbonyloxymethyl)ergoline], the median effective dose (ED50) with adrenalin [1] (setting [7]) is 0.0188 mg/kg. Besides, the 50% effective dose (ED50) in the test with triptamine (in vivo (g)) turned out to be 0.05 mg/kg. In the test on adrenalin [3], the “adrenolytic activity (in words)” value is on record as “high” and the “Antiadrenalin activity in vitro EC50” value worked out at 1.3 ng/mL. In the test on BaCl2, the “Anti BaCl2 activity EC50” value stood at 10000 ng/mL. Further, the “pharmacological properties (in words)” value in test [4] is “broad spectrum of pharmacologycal properties”. In the test with 5HT, the “anti-serotininic activity (in words)” value is reported as “high” and the “Anti 5HT activity in vitro EC50” value amounted to 0.01 ng/mL.

With `CSc1[nH]c2cccc3c2c1C[C@@H]1[C@@H]3C[C@@H](COC(=O)N2CCCCC2)CN1C` [Compound 9, D-6-methyl-2-methylthio-8beta(piperidinocarbonyloxymethyl)ergoline], the ED50 with adrenalin [1] (setting [7]) amounted to 0.031 mg/kg. Further, the median effective dose (ED50) with triptamine (in vivo (g)) is 10 mg/kg. Besides, in the test on adrenalin [3], the “adrenolytic activity (in words)” value was “high” and the “Antiadrenalin activity in vitro EC50” value is 1.8 ng/mL. In the test with BaCl2, the “Anti BaCl2 activity EC50” value is 2200 ng/mL. Also, the “pharmacological properties (in words)” value in test [4] is recorded as “broad spectrum of pharmacologycal properties”. Also, in the test with 5HT, the “anti-serotininic activity (in words)” value was “high” and the “Anti 5HT activity in vitro EC50” value was 1 ng/mL.

Consider `COc1ccc(Cc2nccc3cc(OC)c(OC)cc23)cc1OC` [papaverine, reference compound], for which, in the test on BaCl2, the “Anti BaCl2 activity EC50” value stood at 8900 ng/mL.

`CSc1c2c3c(cccc3n1C)[C@H]1C[C@@H](COC(=O)N3CCCCCC3)CN(C)[C@@H]1C2` [Compound 16, D-1,6-dimethyl-2-methylthio-8beta(perhydroazepinylcarbonyloxymethyl)ergoline maleate]: in the test with ptosis due to reserpine, the ED100 was found to be 0.1 mg/kg.

In the test with ptosis due to reserpine, `CCN(CC)C(=O)OC[C@@H]1C[C@@H]2c3cccc4c3c(c(SC)n4C)C[C@H]2N(C)C1` [Compound 13, D-1.6-dimethyl-2-methylthio-8beta(diethylaminocarbonyloxymethyl)ergoline maleate] registered an ED100 of 0.5 mg/kg.

Regarding `CO[C@]12C[C@@H](COC(=O)c3cncc(Br)c3)CN(C)[C@@H]1Cc1cn(C)c3cccc2c13` [nicergoline], the “Antiadrenalin activity in vivo ED50” value with adrenalin [5] is reported as 20 μg/kg/iv. In the test on adrenalin [6], the “Antiadrenalin activity in vitro EC50” value was 7 ng/mL.

Take `CSc1c2c3c(cccc3n1C)[C@H]1C[C@@H](COC(=O)N3CCCC3)CN(C)[C@@H]1C2` [Compound 14, D-1,6-dimethyl-2-methylthio-8beta(pyrrolidinocarbonyloxymethyl)ergoline ma leate]: the ED100 in the test with ptosis due to reserpine is 0.025 mg/kg; in the test “Analgesic activity” it was 5 mg/kg. The “analgesic activity (in words)” value in “Analgesic activity” is recorded as “potent analgesic activity”.

With `CN1C[C@H](CNC(=O)OCc2ccccc2)C[C@@H]2c3cccc4c3c(cn4C)C[C@H]21` [metergoline, reference compound], in the test on triptamine, the median effective dose (ED50) was 0.062 mg/kg.

In test [2] (iv), `O=C(O)c1cc(=O)c2c(OCC(O)COc3cccc4oc(C(=O)O)cc(=O)c34)cccc2o1` [sodium chromoglycate] displayed an ED100 of 5 mg/kg. Moreover, the “antiasthmatic activity by route” value in test [2] (parenteral versus oral route) is “active only by the parenteral route, not by the oral route”.

Consider `CSc1c2c3c(cccc3n1C)[C@H]1C[C@@H](COC(=O)N3CCCCC3)CN(C)[C@@H]1C2` [Compound 15, D-1,6-dimethyl-2-methylthio-8beta(piperidinocarbonyloxymethyl)ergolinemaleate], for which, in the test on ptosis due to reserpine, the ED100 amounted to 0.01 mg/kg.

For the compound `CSc1c2c3c(cccc3n1C)[C@H]1C[C@@H](COC(=O)N(C)C)CN(C)[C@@H]1C2` [Compound 12, D-1,6-dimethyl-2-methylthio-8beta(dimethylaminocarbonyloxymethyl)ergoline maleate], in the test with ptosis due to reserpine, the ED100 came to 0.025 mg/kg. In “Analgesic activity”, the “analgesic activity (in words)” value is recorded as “potent analgesic activity” and the ED100 came to 2.5 mg/kg.

Take `CN(C)CCCN1c2ccccc2CCc2ccccc21` [imipramine, reference compound]: the ED100 in the test with ptosis due to reserpine amounted to 25 mg/kg.

The compound `CSc1c2c3c(cccc3n1C)[C@H]1C[C@@H](COC(=O)N3CCOCC3)CN(C)[C@@H]1C2` [Compound 17, D-1,6-dimethyl-2-methylthio-8beta(morpholinecarbonyloxymethyl)ergoline] yielded an ED100 in the test with ptosis due to reserpine of 0.5 mg/kg.

`CCC(=O)O[C@](Cc1ccccc1)(c1ccccc1)[C@H](C)CN(C)C` [D-propoxyphene, reference compound] returned an ED100 in the test “Analgesic activity” of 10 mg/kg.

(Values after patent US4197299A, “Anti-hypertensive derivatives of ergoline-2-thioethers and their sulphoxides” (priority 1977, dated 1980).)
